Measured values from US8425917B2 (priority 2001, dated 2013).
Entries after “also recorded” stand apart in the source; their conditions may differ. Read-outs that look alike come from different tables or passages of the source. Square brackets hold non-standard residues; d marks the D form. Peptide text beside a SMILES is read from it. * marks the point of attachment. Sta = CC(C)C[C@H](N)[C@@H](O)CC(=O)O; Isovaleryl = CC(C)CC(=O)*; Cbz = O=C(OCc1ccccc1)*

Legend:
Type in all cases: cell-based, mouse (C57BL/6)
[1] = test system: JAWSII dendritic cells
[2] = test system: EtxB-mediated epitope delivery in JAWSII cells
[3] = test system: EtxB-mediated epitope delivery in JAWSII cells; remark: listed apart in the source
[4] = test system: JAWSII cells
[5] = test system: MHC-I/SIINFEKL complex on JAWSII cells

Q: How did the “extent of class I epitope presentation (IL-2 release)” value (from here on “extent … (IL-2 release)”) [1] turn out when CSIINFEKL [9mer] was run?
A: significantly stimulated class I presentation

Q: What does the source list for CC(C)C[C@@H](C=O)NC(=O)[C@H](CC(C)C)NC(=O)[C@H](CC(C)C)NC(=O)OCc1ccccc1 [MG132] (Cbz-Leu-Leu-Leu-aldehyde)?
A: effect on direct loading and presentation of free 8mer peptide [2]: failed to prevent; effect on epitope presentation by EtxB-19mer [2]: failed to prevent; effect on epitope presentation by EtxB-31mer [2]: completely blocked

Q: How did the “effect on direct loading and presentation of free 8mer peptide” value (“effect … of free 8mer peptide” below) [2] turn out when Brefeldin A [BFA] was run?
A: did not inhibit

Q: What about the “effect on epitope delivery by EtxB-9mer, -16mer, -19mer, -26mer and -26mer* conjugates” value (from here on “effect on epitope delivery by EtxB-9mer”) [2] of the same compound?
A: complete inhibition

Q: And the “effect on epitope presentation by EtxB-31mer” value (“effect … by EtxB-31mer” for short) [2]?
A: prevented

Q: And the “effect on epitope delivery by EtxB-9mer” value [3]?
A: complete inhibition

Q: What about the “effect … by EtxB-31mer” value [3] of the same compound?
A: prevented

Q: What about the “effect on MHC-I/SIINFEKL complexes in cells treated with EtxB-19mer or EtxB-31mer” value [4] of the same compound?
A: no detectable MHC-I/SIINFEKL complexes were observed

Q: What does the source list for CC(=O)N[C@@H](CSC(=O)[C@]1([C@@H](O)C(C)C)NC(=O)[C@H](C)[C@@H]1O)C(=O)O [lactacystin]?
A: effect on direct loading and presentation of free 8mer peptide [2]: failed to prevent; effect on epitope presentation by EtxB-19mer [2]: failed to prevent; effect on epitope presentation by EtxB-31mer [2]: completely blocked

Q: For CC(=O)N[C@@H](CC(C)C)C(=O)N[C@@H](CC(C)C)C(=O)N[C@H](C=O)CCCNC(=N)N [leupeptin], which “effect on EtxB-mediated epitope presentation (conjugate not specified)” value (from here on “effect … (conjugate not specified)”) [2] is on record?
A: no significant effects

Q: c1cnc2c(c1)ccc1cccnc12 [1,10-phenanthroline] was tested. Which “effect … (conjugate not specified)” value [2] did it give?
A: found to inhibit

Q: For Bafilomycin A1 [BafA1], which “effect … (conjugate not specified)” value [2] is on record?
A: inhibited

Q: What about the “effect … of free 8mer peptide” value [2] of the same compound?
A: did not inhibit

Q: And the “effect on epitope delivery by EtxB-9mer” value [2]?
A: complete inhibition

Q: What about the “effect … by EtxB-31mer” value [2] of the same compound?
A: prevented

Q: And the “effect on epitope delivery by EtxB-9mer” value [3]?
A: complete inhibition

Q: What about the “effect … by EtxB-31mer” value [3] of the same compound?
A: prevented

Q: And the “effect on MHC-I/SIINFEKL complexes in cells treated with EtxB-19mer or EtxB-31mer” value [4]?
A: no detectable MHC-I/SIINFEKL complexes were observed

Q: How did the “extent … (IL-2 release)” value [1] turn out when SIINFEKL [8mer] was run?
A: significantly stimulated class I presentation

Q: And the “kinetics of class I peptide presentation (in words)” value [1]?
A: peptide presentation at the earliest time point tested

Q: What about the “MHC-I/SIINFEKL complexes (shift in fluorescence)” value [5] of the same compound?
A: clear and similar shift in fluorescence

Q: Which “effect … of free 8mer peptide” value [2] does the source give for CC[C@H](C)[C@H](NC(=O)[C@H]([C@@H](C)CC)N(C)C(C)=O)C(=O)N[C@H](C(=O)N[C@@H](CC(C)C)C(=O)[C@@]1(C)CO1)[C@@H](C)O [epoxomicin] here?
A: no inhibition of epitope presentation was observed

Q: What about the “effect on epitope presentation by EtxB-19mer” value [2] of the same compound?
A: no inhibition of epitope presentation was observed

Q: And the “effect … by EtxB-31mer” value [2]?
A: completely blocked

Q: What about the “effect on epitope presentation by EtxB-19mer” value [3] of the same compound?
A: no inhibition of epitope presentation was observed

Q: What about the “effect … by EtxB-31mer” value [3] of the same compound?
A: completely blocked

Q: What about the “effect on MHC-I/SIINFEKL staining in cells treated with EtxB-19mer” value [4] of the same compound?
A: normal co-localisation of WGA and MHC-I/SIINFEKL complexes was observed

Q: And the “effect on MHC-I/SIINFEKL staining in cells treated with EtxB-31mer” value [4]?
A: no staining with MHC-I/SIINFEKL-specific antibodies was obtained

Q: How did the “effect … (conjugate not specified)” value [2] turn out when CC[C@@]1([C@@H]2O[C@@H]([C@H]3O[C@@](O)(CO)[C@H](C)C[C@@H]3C)C[C@@H]2C)CC[C@H]([C@]2(C)CC[C@]3(C[C@H](O)[C@@H](C)[C@@H]([C@@H](C)[C@@H](OC)[C@H](C)C(=O)O)O3)O2)O1 [monensin] was run?
A: prevented; also recorded: inhibited

Q: And the “effect … of free 8mer peptide” value [2]?
A: unaffected

Q: With CAVGAGATAEESIINFEKL [19mer] as the compound, how does the “extent … (IL-2 release)” value [1] read?
A: virtually no presentation occurred

Q: For CC(C)C[C@H](NC(=O)[C@@H](O)[C@H](N)Cc1ccccc1)C(=O)O [bestatin], which “effect … (conjugate not specified)” value [2] is on record?
A: no significant effects

Q: Which “effect on extent of EtxB-mediated presentation of the 26mer peptide” value [2] does the source give for CC(C)CC(=O)N[C@H](C(=O)N[C@H](C(=O)N[C@@H](CC(C)C)[C@@H](O)CC(=O)N[C@@H](C)C(=O)N[C@@H](CC(C)C)[C@@H](O)CC(=O)O)C(C)C)C(C)C [pepstatin] (Isovaleryl-VV[Sta]A[Sta]-OH) here?
A: no effect
